In BigSolDB 2.1:

CCCSc1ccc2nc(NC(=O)OC)[nH]c2c1
solubility (mole fraction)
Conditions	278.15 K	283.15 K	288.15 K	293.15 K	298.15 K	303.15 K	308.15 K	313.15 K	318.15 K	323.15 K
in acetone	0.00151	0.0018	0.00213	0.00254	0.00297	0.00344	0.00402	0.00463	0.00535	0.00613
in isopropanol	0.000106	0.00013	0.000158	0.000192	0.000229	0.000276	0.00033	0.000388	0.000453	0.000532
in methanol	8.85e-05	0.000109	0.000132	0.000159	0.000193	0.00023	0.000273	0.000327	0.000381	0.000448
in water	1.59e-07	2.16e-07	2.9e-07	3.99e-07	5.31e-07	6.93e-07	9.18e-07	1.19e-06	1.56e-06	1.98e-06
